Results published in US11434242B2, “Dopamine-b-hydroxylase inhibitors” (BIAL-PORTELA & Cª, S.A., priority 2017, dated 2022).

Molecular target: T1, Dopamine beta hydroxylase (Homo sapiens, UniProt P09172)
T1 construct: 125 μl of plasma; tissue Instituto Português do Sangue Transplantação; host or cells: human plasma from healthy donors
T1 sequence (P09172 40-617 limits assumed): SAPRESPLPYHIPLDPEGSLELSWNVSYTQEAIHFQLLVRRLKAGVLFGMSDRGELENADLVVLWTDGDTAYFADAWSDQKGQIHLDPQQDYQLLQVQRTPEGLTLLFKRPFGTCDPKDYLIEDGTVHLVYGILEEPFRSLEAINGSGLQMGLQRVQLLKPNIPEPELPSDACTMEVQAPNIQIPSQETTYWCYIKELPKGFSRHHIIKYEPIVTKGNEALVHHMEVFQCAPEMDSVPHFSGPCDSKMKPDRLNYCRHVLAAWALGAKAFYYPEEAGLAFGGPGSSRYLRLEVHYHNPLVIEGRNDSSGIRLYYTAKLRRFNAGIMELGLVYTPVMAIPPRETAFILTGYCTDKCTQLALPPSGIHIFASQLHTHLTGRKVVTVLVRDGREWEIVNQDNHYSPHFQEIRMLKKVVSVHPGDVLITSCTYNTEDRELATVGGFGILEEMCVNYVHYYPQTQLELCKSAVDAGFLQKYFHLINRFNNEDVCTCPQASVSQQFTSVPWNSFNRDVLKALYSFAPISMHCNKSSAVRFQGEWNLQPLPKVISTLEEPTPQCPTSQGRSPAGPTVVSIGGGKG
Assay: Dopamine beta hydroxylase activity in human plasma
Assay type: biochemical
Conditions: for Plasma (0.01 μM), activity in % of control: inhibitor 0.01 μM; for Plasma (0.1 μM), activity in % of control: inhibitor 0.1 μM; for Plasma (1 μM), activity in % of control: inhibitor 1 μM
Outline: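 Octopamine production from tyramine over 45 min at 37° C, measured photometrically at 330 nm after SCX extraction and periodate oxidation against an octopamine standard curve, indicates plasma DβH activity. Compounds tested at final 10, 100 and 1000 nM in human plasma, pH 5.0 cofactor buffer, 10 min preincubation; results as % of control.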

Structure (SMILES): Cl.Fc1ccc(Br)cc1[C@]12C[C@H]1c1c(CCNCC3CC3)[nH]c(=S)n1C2 [Example 186, (5aS,6aR)-5a-(5-bromo-2-fluorophenyl)-1-(2-((cyclopropylmethyl)amino)ethyl)-5,5a,6,6a-tetrahydrocyclopropa[3,4]pyrrolo[1,2-c]imidazole-3(2H)-thione hydrochloride]
- Plasma (0.01 μM), activity in % of control: 62.7 % of control
- Plasma (0.1 μM), activity in % of control: 18.0 % of control

Structure (SMILES): CN(C(=O)Cc1c2n(c(=S)n1C)C[C@@]1(c3cc(Cl)ccc3F)C[C@@H]21)[C@@H]1CCOC1 [Example 468, 2-((5aS,6aR)-5a-(5-chloro-2-fluorophenyl)-2-methyl-3-thioxo-2,3,5,5a,6,6a-hexahydrocyclopropa[3,4]pyrrolo[1,2-c]imidazol-1-yl)-N-methyl-N—((R)-tetrahydrofuran-3-yl)acetamide]
- Plasma (0.01 μM), activity in % of control: 65.8 % of control
- Plasma (0.1 μM), activity in % of control: 13.1 % of control

Structure (SMILES): Cn1c(CC(=O)NC2CCOCC2)c2n(c1=S)C[C@H](c1c(F)ccc(F)c1F)C2 [Example 416, (S)-2-(2-methyl-3-thioxo-6-(2,3,6-trifluorophenyl)-2,5,6,7-tetrahydro-3H-pyrrolo[1,2-c]imidazol-1-yl)-N-(tetrahydro-2H-pyran-4-yl)acetamide]
- Plasma (0.01 μM), activity in % of control: 75.3 % of control
- Plasma (0.1 μM), activity in % of control: 25.4 % of control

Structure (SMILES): Cn1c(CC(=O)N2CC[C@@H](F)C2)c2n(c1=S)C[C@@H](c1c(F)ccc(F)c1F)C2 [Example 292, 1-((R)-3-fluoropyrrolidin-1-yl)-2-((R)-2-methyl-3-thioxo-6-(2,3,6-trifluorophenyl)-2,5,6,7-tetrahydro-3H-pyrrolo[1,2-c]imidazol-1-yl)ethan-1-one]
- Plasma (0.01 μM), activity in % of control: 101.9 % of control
- Plasma (0.1 μM), activity in % of control: 68.3 % of control

Structure (SMILES): CN(C)C(=O)CN1CCN(C(=O)Cc2[nH]c(=S)n3c2C[C@H](c2c(F)c(F)cc(F)c2F)C3)CC1 [Example 85, (R)—N,N-dimethyl-2-(4-(2-(6-(2,3,5,6-tetrafluorophenyl)-3-thioxo-2,5,6,7-tetrahydro-3H-pyrrolo[1,2-c]imidazol-1-yl)acetyl)piperazin-1-yl)acetamide]
- Plasma (0.1 μM), activity in % of control: 59.1 % of control
- Plasma (1 μM), activity in % of control: 12.2 % of control

Structure (SMILES): Cn1c(CC(=O)N[C@H]2CCOC2)c2n(c1=S)C[C@@H](c1c(F)c(F)cc(F)c1F)C2 [Example 295, 2-((R)-2-methyl-3-thioxo-6-(2,3,5,6-tetrafluorophenyl)-2,5,6,7-tetrahydro-3H-pyrrolo[1,2-c]imidazol-1-yl)-N—((S)-tetrahydrofuran-3-yl)acetamide]
- Plasma (0.01 μM), activity in % of control: 95.6 % of control
- Plasma (0.1 μM), activity in % of control: 71.5 % of control

Structure (SMILES): O=C(Cc1[nH]c(=S)n2c1C[C@H](c1c(F)ccc(Br)c1F)C2)N[C@@H]1CCCC[C@H]1O [Example 160, 2-((R)-6-(3-bromo-2,6-difluorophenyl)-3-thioxo-2,5,6,7-tetrahydro-3H-pyrrolo[1,2-c]imidazol-1-yl)-N-((1R,2R)-2-hydroxycyclohexyl)acetamide]
- Plasma (0.01 μM), activity in % of control: 84.7 % of control
- Plasma (0.1 μM), activity in % of control: 50.8 % of control

Structure (SMILES): CS(=O)(=O)NC(=O)Cc1[nH]c(=S)n2c1C[C@@H](c1c(F)ccc(Br)c1F)C2 [Example 20, (S)-2-(6-(3-bromo-2,6-difluorophenyl)-3-thioxo-2,5,6,7-tetrahydro-3H-pyrrolo[1,2-c]imidazol-1-yl)-N-(methylsulfonyl)acetamide]
- Plasma (0.1 μM), activity in % of control: 31.0 % of control
- Plasma (1 μM), activity in % of control: 2.6 % of control

Structure (SMILES): Cn1c(CC(=O)N[C@@H]2CCNC2=O)c2n(c1=S)C[C@H](c1c(F)ccc(Br)c1F)C2 [Example 342, 2-((S)-6-(3-bromo-2,6-difluorophenyl)-2-methyl-3-thioxo-2,5,6,7-tetrahydro-3H-pyrrolo[1,2-c]imidazol-1-yl)-N—((R)-2-oxopyrrolidin-3-yl)acetamide]
- Plasma (0.01 μM), activity in % of control: 66.6 % of control
- Plasma (0.1 μM), activity in % of control: 16.5 % of control

Structure (SMILES): O=C(O)C(Cc1[nH]c(=S)n2c1C[C@H](c1c(F)c(F)cc(F)c1F)C2)C(=O)O [Example 201, (R)-2-((6-(2,3,5,6-tetrafluorophenyl)-3-thioxo-2,5,6,7-tetrahydro-3H-pyrrolo[1,2-c]imidazol-1-yl)methyl)malonic Acid]
- Plasma (0.01 μM), activity in % of control: 62.4 % of control
- Plasma (0.1 μM), activity in % of control: 13.3 % of control

Structure (SMILES): O=C(Cc1[nH]c(=S)n2c1C[C@H](c1c(F)ccc(Br)c1F)C2)NCCO [Example 119, (R)-2-(6-(3-bromo-2,6-difluorophenyl)-3-thioxo-2,5,6,7-tetrahydro-3H-pyrrolo[1,2-c]imidazol-1-yl)-N-(2-hydroxyethyl)acetamide]
- Plasma (0.01 μM), activity in % of control: 118.2 % of control
- Plasma (0.1 μM), activity in % of control: 87.7 % of control

Structure (SMILES): O=C(Cc1[nH]c(=S)n2c1[C@@H]1C[C@]1(c1cc(Br)ccc1F)C2)Nc1ccccn1 [Example 170, 2-((5aS,6aR)-5a-(5-bromo-2-fluorophenyl)-3-thioxo-2,3,5,5a,6,6a-hexahydrocyclopropa[3,4]pyrrolo[1,2-c]imidazol-1-yl)-N-(pyridin-2-yl)acetamide]
- Plasma (0.01 μM), activity in % of control: 64.9 % of control
- Plasma (0.1 μM), activity in % of control: 2.0 % of control

Structure (SMILES): Cl.Cn1c(CCN[C@@H]2CCCOC2)c2n(c1=S)C[C@@]1(c3cc(Br)ccc3F)C[C@@H]21 [Example 331, (5aS,6aR)-5a-(5-bromo-2-fluorophenyl)-2-methyl-1-(2-(((R)-tetrahydro-2H-pyran-3-yl)amino)ethyl)-5,5a,6,6a-tetrahydrocyclopropa[3,4]pyrrolo[1,2-c]imidazole-3(2H)-thione Hydrochloride]
- Plasma (0.01 μM), activity in % of control: 77.4 % of control
- Plasma (0.1 μM), activity in % of control: 50.2 % of control

Structure (SMILES): CN(C(=O)Cc1[nH]c(=S)n2c1C[C@H](c1c(F)ccc(F)c1F)C2)C1CCOC1 (stereo partly drawn) [Example 364, N-methyl-N-(tetrahydrofuran-3-yl)-2-((R)-3-thioxo-6-(2,3,6-trifluorophenyl)-2,5,6,7-tetrahydro-3H-pyrrolo[1,2-c]imidazol-1-yl)acetamide]
- Plasma (0.01 μM), activity in % of control: 97.0 % of control
- Plasma (0.1 μM), activity in % of control: 54.7 % of control

Structure (SMILES): O=C(Cc1[nH]c(=S)n2c1C[C@@H](c1c(F)ccc(Cl)c1F)C2)Nc1nncs1 [Example 168, (S)-2-(6-(3-chloro-2,6-difluorophenyl)-3-thioxo-2,5,6,7-tetrahydro-3H-pyrrolo[1,2-c]imidazol-1-yl)-N-(1,3,4-thiadiazol-2-yl)acetamide]
- Plasma (0.01 μM), activity in % of control: 51.9 % of control
- Plasma (0.1 μM), activity in % of control: 10.5 % of control

Structure (SMILES): O=C(Cc1[nH]c(=S)n2c1C[C@H](c1c(F)c(F)cc(F)c1F)C2)N1CCC2(CC1)OCCO2 [Example 87, (R)-1-(1,4-dioxa-8-azaspiro[4.5]decan-8-yl)-2-(6-(2,3,5,6-tetrafluorophenyl)-3-thioxo-2,5,6,7-tetrahydro-3H-pyrrolo[1,2-c]imidazol-1-yl)ethan-1-one]
- Plasma (0.1 μM), activity in % of control: 62.8 % of control
- Plasma (1 μM), activity in % of control: 13.8 % of control
